Source: US8946247B2, “Quinazoline carboxamide azetidines” (Merck Patent GmbH, priority 2010, dated 2015)

Assays:
P70S6K (T412E mutant) = molecular target: T1, P70S6K (T412E mutant) (Homo sapiens, UniProt P23443, T412E); assay: p70S6K Enzyme Assay; format: biochemical; details: 24 μM ATP, 90 min at 25° C., Caliper mobility shift
T1 construct: purchased Millipore
Method: p70S6K inhibitor compounds were diluted and plated in 96 well plates. A reaction mixture including the following components were then added to the compound plate to initiate the enzyme reaction; P70S6K (3 nM, T412E mutant, Millipore) was mixed with 24 μM ATP in an assay buffer containing 100 mM Hepes (pH 7.5), 5 mM MgCl2, 1 mM DTT, 0.015% Brij and 1 μM of the substrate peptide FITC-AHA-AKRRRLSSLRA-OH (derived from the S6 ribosomal protein sequence, FITC=fluorescein isothiocyanate, AHA=6-aminohexanoic acid). The reaction was incubated for 90 min at 25° C., before the addition of 10 mM EDTA to stop the reaction. The proportion of substrate and product (phosphorylated) peptide was analysed on a Caliper Life Sciences Lab Chip 3000, using a pressure of −1.4 psi, and upstream and downstream voltages of −3000 and −700 respectively. Product peaks were resolved before substrate peaks on the resulting chromatograms.
To assess the inhibitory potential of the compounds, IC50-values were determined, as shown in Chemical Synthesis section above.

pS6 MDA-MB-468 = assay: Cellular Activity Assay (phospho-S6 in MDA-MB-468 cells); format: cell-based; details: Homo sapiens, 2 hr compound incubation, percent pS6-positive cells
Method: MDA-MB-468 cells were grown in DMEM containing glutamine supplemented with 10% Fetal Bovine Serum (FBS) and 1× antibiotics. Cells were maintained by splitting 1:3 twice a week.
For the assay, cells were plated the evening before at a density of 4000 cells per well in black polyD lysine coated 384 well plates. Cells were incubated overnight (16 to 20 hours) in growth media. Compounds at an appropriate concentration were added to the wells and incubated for 2 hr. Controls included: i) no primary, ii) rabbit isotype, iii) propidium iodide (red) only and iv) anti-phospho-S6 antibody alone (green only). Cells were then fixed in 4% paraformaldehyde for 15-20 minutes at room temperature, then washed 3×80 ul with PBS.
50 ul 10% normal goat serum (NGS) with 0.2% triton X 100 in PBS were added and incubated for 30 to 60 minutes at room temperature. Anti-phospho-S6 antibody was diluted 1:800 2% with NGS in 0.2% TritonX-100 and 30 ul added to appropriate wells. The wells were incubated overnight at 4 degrees Celsius.
Then the wells were washed with 3×80 uL PBS. The secondary green fluorescence labeled antibody (Alexa Fluor® 488 F(ab′)2 fragment goat Anti-rabbit IgG (H+L)), was diluted 1:1500 in 2% NGS with 0.2% TritonX-100, and 30 ul were added to the appropriate wells which were then incubated in the dark at room temperature for 60 minutes. Then they were washed with 4×80 ul PBS. Propidium iodide (1.5 mM stock) was diluted 1:1000 in PBS, and 50 ul were added to the appropriate wells and incubated for 30 minutes at room temperature in the dark. Propidium iodide was not washed out. Plates were read on the Acumen Explorer.
Red and green cell populations were determined using controls. The number of green cells (pS6) and total number of cells (red) were then counted and the percentage of green cells was calculated. Percent positive cell data was plotted on a log scale against concentration of compounds and IC50 values were calculated from dose response curves.

Akt1 = molecular target: T2, Akt1 (Homo sapiens, UniProt P31749); assay: AKT/PKB Kinase Assay; format: biochemical; details: His-AKT (Full Length), 160 uM ATP, 90 min at 25 C
T2 construct: 0.1 ng/ul His-AKT (Full Length), (Invitrogen, Part #P2999, Lot #641228C); His; purchased Invitrogen P2999
Method: In order to measure AKT inhibition in the Caliper Life Sciences LC3000, a TTP Mosquito liquid handling instrument was used to place 125 nl of the appropriate concentration of inhibitor in 100% DMSO (for a dose response curve calculation) into each well of a 384-well plate. To this reaction components were added to a final volume of 12.5 ul: • 0.1 ng/ul His-AKT (Full Length), (Invitrogen, Part #P2999, Lot #641228C) • 160 uM ATP (Fluke, 02055) • 1 mM DTT (Sigma, D0632) • 1 mM MgCl2 (Sigma, M1028) • 1 uM substrate peptide (sequence FITC-AHA-GRPRTSSFAEG-NH2), synthesized by Tufts Peptide Synthesis service. • 100 mM HEPES pH 7.5 (Calbiochem, 391338) • 0.015% Brij-35 (Sigma, B4184)
(§1) The reaction was incubated for 90 min at 25 C, and then stopped by the addition of 70 ul of Stop buffer (100 mM HEPES pH 7.5, 0.015% Brij-35, 10 mM EDTA (Sigma, E7889)).
The plate was read on a Caliper LC 3000 in an Off-Chip mobility shift assay format, using the following parameters for a 12-sipper chip: screening pressure −2.3 psi, upstream voltage −500, and downstream voltage −3000.
These conditions cause unphosphorylated substrate and phosphorylated product peptide to resolve as separate peaks allowing direct measurement of percentage of conversion of substrate to product. The percent conversion was plotted against concentration of inhibitor to produce a sigmoidal dose response curve, from which an IC50 was calculated.

Aurora B = molecular target: T3, Aurora B (Homo sapiens, UniProt Q96GD4); assay: Aurora B Kinase Assay; format: biochemical; details: for IC50: GST-Aurora B (1-344), 10 uM ATP, 90 min at 25 C
T3 construct: GST-Aurora B (1-344 amino acids); GST (N); purchased Carna Biosciences 05-102
Method: To measure inhibitor activity of Aurora B inhibitors in the Caliper Life Sciences LC3000, a TTP Mosquito liquid handling instrument was used to place 0.25 ul of the appropriate concentration of inhibitor in 100% DMSO (for a dose response curve calculation) into each well of a 384-well plate. To this reaction components was added to a final volume of 25 ul: • 0.1 ng/ul GST-Aurora B (1-344 amino acids), (Carna Biosciences 05-102. N-terminal GST fusion with His tagged INCEP, accession number Q96GD4). • 10 uM ATP (Fluka, 02055) • 1 mM DTT (Sigma, D0632) • 1 mM MgCl2 (Sigma, M1028) • 1 uM substrate peptide (sequence FITC-LRRASLG-(CONH2), synthesized by Tufts Peptide Synthesis service. • 100 mM HEPES pH 7.5 (Calbiochem, 391338) • 0.015% Brij-35 (Sigma, B4184)
as §1
The plate was read on a Caliper LC 3000 in an Off-Chip mobility shift assay format, using the following parameters for a 12-sipper chip: screening pressure −1.8 psi, upstream voltage −2700, downstream voltage −1000. These conditions caused unphosphorylated substrate and phosphorylated product peptide to resolve as separate peaks allowing direct measurement of percentage of conversion of substrate to product. The percent conversion was plotted against concentration of inhibitor to produce a sigmoidal dose response curve, from which an IC50 was calculated using XLFit for Microsoft Excel.

T2 sequence (P31749 whole entry): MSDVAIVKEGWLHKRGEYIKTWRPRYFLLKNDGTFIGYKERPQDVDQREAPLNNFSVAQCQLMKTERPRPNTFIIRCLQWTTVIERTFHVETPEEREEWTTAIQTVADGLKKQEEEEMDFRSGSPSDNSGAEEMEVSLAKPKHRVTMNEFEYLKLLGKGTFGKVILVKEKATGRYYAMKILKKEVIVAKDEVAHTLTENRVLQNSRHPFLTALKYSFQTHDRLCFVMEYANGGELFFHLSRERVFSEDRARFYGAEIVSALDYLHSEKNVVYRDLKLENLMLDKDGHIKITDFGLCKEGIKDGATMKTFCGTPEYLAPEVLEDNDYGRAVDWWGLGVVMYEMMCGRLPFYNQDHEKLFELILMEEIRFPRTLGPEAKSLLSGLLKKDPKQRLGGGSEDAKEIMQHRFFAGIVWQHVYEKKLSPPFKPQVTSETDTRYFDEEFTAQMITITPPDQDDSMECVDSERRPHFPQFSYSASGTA
T1 sequence (P23443 1-421 T412E limits assumed): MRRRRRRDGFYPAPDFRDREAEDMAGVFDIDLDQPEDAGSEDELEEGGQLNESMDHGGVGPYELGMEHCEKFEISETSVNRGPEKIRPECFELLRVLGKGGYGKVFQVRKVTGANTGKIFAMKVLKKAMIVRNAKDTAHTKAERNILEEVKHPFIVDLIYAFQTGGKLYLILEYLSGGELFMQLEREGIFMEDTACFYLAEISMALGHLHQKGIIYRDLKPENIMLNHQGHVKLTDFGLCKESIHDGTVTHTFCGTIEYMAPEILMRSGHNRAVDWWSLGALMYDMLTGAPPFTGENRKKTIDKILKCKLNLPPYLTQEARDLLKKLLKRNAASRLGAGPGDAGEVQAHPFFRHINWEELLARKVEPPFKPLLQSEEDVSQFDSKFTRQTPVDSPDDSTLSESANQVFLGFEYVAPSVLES
T3 sequence (Q96GD4 whole entry, the tested form may be a part): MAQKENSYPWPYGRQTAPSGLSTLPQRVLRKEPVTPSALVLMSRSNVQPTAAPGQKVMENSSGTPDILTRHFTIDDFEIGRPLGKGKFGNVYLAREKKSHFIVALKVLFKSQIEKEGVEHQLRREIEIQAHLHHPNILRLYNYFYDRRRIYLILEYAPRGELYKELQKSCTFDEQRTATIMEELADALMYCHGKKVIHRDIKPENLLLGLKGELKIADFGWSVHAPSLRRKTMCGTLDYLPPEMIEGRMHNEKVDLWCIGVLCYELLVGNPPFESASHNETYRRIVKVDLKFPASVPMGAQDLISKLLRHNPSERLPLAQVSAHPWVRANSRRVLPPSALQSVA
T3 sequence (Q9NQS7 803-918 partner limits assumed): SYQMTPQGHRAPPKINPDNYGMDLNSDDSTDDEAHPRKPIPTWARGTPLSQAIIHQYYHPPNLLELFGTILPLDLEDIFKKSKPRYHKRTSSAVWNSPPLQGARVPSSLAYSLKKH

| Compound | IC50 (P70S6K (T412E mutant)) [nM] | IC50 (pS6 MDA-MB-468) [nM] | IC50 (Akt1) [nM] | IC50 (Aurora B) [nM] | Aurora B/p70S6K inhibitory ratio (Aurora B; ratio of Aurora B to p70S6K inhibition) |
| --- | --- | --- | --- | --- | --- |
| NC(=O)c1cccc2c(N[C@H](CN3CCC3)c3ccc(Cl)cc3)ncnc12 [Example 10, 4-[(S)-2-Azetidin-1-yl-1-(4-chlorophenyl)-ethylamino]-quinazoline-8-carboxylic acid amide] | 1 | 36 | 21 | 43 |  |
| COc1cccc([C@@H](CN2CCC2)Nc2ncnc3c(C(N)=O)cccc23)c1 [Example 12, 4-[(S)-2-Azetidin-1-yl-1-(3-methoxyphenyl)-ethylamino]-quinazoline-8-carboxylic acid amide] | 4.4 | 204 | 250 | 67 |  |
| NC(=O)c1cccc2c(N[C@H](CN3CCC3)c3ccc(C(F)(F)F)cc3)ncnc12 [Example 9, 4-[(S)-2-Azetidin-1-yl-1-(4-trifluoromethylphenyl)-ethylamino]-quinazoline-8-carboxylic acid amide] | 0.8 | 10 | 17 | 260 |  |
| NC(=O)c1cccc2c(N[C@H](CN3CCC3)c3ccc(Cl)cc3F)ncnc12 [Example 14, 4-[(S)-2-Azetidin-1-yl-1-(2-fluoro-4-chlorophenyl)-ethylamino]-quinazoline-8-carboxylic acid amide] | 1.1 | 86 | 25 | 69 |  |
| NC(=O)c1cccc2c(N[C@H](CN3CCC3)c3ccc(C(F)(F)F)c(Cl)c3)ncnc12 [Example 17, 4-[(S)-2-Azetidin-1-yl-1-(3-chloro-4-trifluoromethylphenyl)-ethylamino]-quinazoline-8-carboxylic acid amide] | 2.3 | 8 | 3.7 | 130 |  |
| NC(=O)c1cccc2c(N[C@H](CN3CCC3)c3cc(F)cc(C(F)(F)F)c3)ncnc12 [Example 6, 4-[(S)-2-Azetidin-1-yl-1-(3-fluoro-5-trifluoromethylphenyl)-ethylamino]-quinazoline-8-carboxylic acid amide] | 2.3 | 98 | 9.1 | 270 |  |

Continued by falling IC50 (P70S6K (T412E mutant)), values first:

| IC50 (P70S6K (T412E mutant)) [nM] | IC50 (pS6 MDA-MB-468) [nM] | IC50 (Akt1) [nM] | IC50 (Aurora B) [nM] | Aurora B/p70S6K inhibitory ratio (Aurora B; ratio of Aurora B to p70S6K inhibition) | Compound |
| --- | --- | --- | --- | --- | --- |
| 5.6 | 70 | 22 | 45 | 28 | NC(=O)c1cccc2c(N[C@H](CN3CCC3)c3cccc(F)c3)ncnc12 [Example 1, 4-[(S)-2-Azetidin-1-yl-1-(3-fluorophenyl)-ethylamino]-quinazoline-8-carboxylic acid amide] |
| 5.4 | 183 | 91 | 170 |  | NC(=O)c1cccc2c(N[C@H](CN3CCC3)c3c(F)cccc3F)ncnc12 [Example 16, 4-[(S)-2-Azetidin-1-yl-1-(2,6-difluorophenyl)-ethylamino]-quinazoline-8-carboxylic acid amide] |
| 5 | 116 | 16 | 540 |  | NC(=O)c1cccc2c(N[C@H](CN3CC(F)C3)c3ccc(F)c(C(F)(F)F)c3)ncnc12 [Example 49, 4-[(S)-2-(3-Fluoro-azetidin-1-yl)-1-(4-fluoro-3-trifluoromethyl-phenyl)-ethylamino]-quinazoline-8-carboxylic acid amide] |
| 4.9 | 427 | 7.5 | 390 |  | CC1CN(C[C@@H](Nc2ncnc3c(C(N)=O)cccc23)c2ccc(F)c(C(F)(F)F)c2)C1 [Example 46, 4-[(S)-1-(4-Fluoro-3-trifluoromethyl-phenyl)-2-(3-methyl-azetidin-1-yl)-ethylamino]-quinazoline-8-carboxylic acid amide] |
| 1.7 | 68 | 120 | 300 |  | NC(=O)c1cccc2c(N[C@H](CN3CCC3)c3ccc4c(c3)OCO4)ncnc12 [Example 20, 4-[(S)-2-Azetidin-1-yl-1-(1-benzo[1,3]dioxol)-ethylamino]-quinazoline-8-carboxylic acid amide] |
